In patent publication US9950044B2, “Treatment of pulmonary vascular remodeling with neprilysin” (THE REGENTS OF THE UNIVERSITY OF COLORADO, A BODY CORPORATE, priority 2010, dated 2018):

Assays:
NEP+/+ PASMCs [1] = test: Proliferation of NEP+/+ PASMCs (3H-thymidine incorporation); assay type: cell-based, mouse; details: wild-type PASMCs, 48 h treatment; phosphoramidon 10 μMole/L or NEP siRNA 10 nMole/L; serum 0.2%, PDGF 10 ng/ml
Method: (§1) Mice were anesthetized with sodium pentobarbital (100 mg/kg i.p.). Proximal medial tissue was micro dissected from individual age matched 13-17 wk old NEP+/+ and NEP−/− littermate mice. Tissue was digested with […] and cells were grown in DMEM-F-12 medium containing 10% fetal bovine serum (FBS) as described (Petkov et al., 2003). PASMCs were characterized by light microscopic appearance, growth characteristics, and stained for α-SM-actin, SM-myosin, Factor VIII and LDL between passage 3 and 6. PASMCs were used for studies between passage 6 and 13.
The effects of growth factors and neuropeptides on DNA synthesis were evaluated as previously reported (Petkov et al., 2003). SMCs were grown in DMEM containing 10% FBS in 24-well plates for about 16 hr. PASMCs were then incubated in DMEM supplemented with 0.2% FBS for 24 hr to make them quiescent. […] [^3H]-thymidine obtained from Perkin Elmer (Waltham, Mass.) at 1 mCi/ml was added for the last 6 hr. After labeling was completed, the cells were washed twice with ice-cold PBS, and proteins were precipitated with 5% perchloric acid. The precipitate was dissolved with 0.5N NaOH and SDS and radioactivity was measured using a liquid scintillation counter made by Beckman Coulter, Inc. (Brea, Calif.).

NEP+/+ PASMCs [2] = test: Migration of NEP+/+ PASMCs (scratch assay); assay type: cell-based, mouse; details: wild-type PASMCs, 48 h treatment; phosphoramidon 10 μMole/L or NEP siRNA 10 nMole/L; serum 0.2%, PDGF 10 ng/ml
Method: as §1
Briefly, PASMCs were grown to confluence on 60 mm plates (Hamidi et al., 2008). The cells were serum starved in DMEM-F-12 medium with 0.2% serum for 24 h, and scraped with a sterile P200 pipette tip to generate a cell-free zone. PASMCs were then rinsed with medium and incubated with either 0.2% serum or 10 ng/ml PDGF-BB and cells that migrated into the scratch were visualized by light microscopic imaging. Quantitation of migration was done by counting the number of PASMCs in a 5 cm^2 area of the scratch. […]
Migration was determined by a modified Boyden chamber assay using a polycarbonate filter with […] pore diameter obtained from Neuroprobe (Gaithersburg, Md.) (Said et al., 2007). […] The membranes were examined under a microscope and the cells that migrated to the lower surface were counted (five random 20× fields/well).

[3] = system: SM-contractile proteins (α-SM-actin, SM-myosin, SM-22, calponin); test: SM-contractile protein expression in PASMCs (Western blotting); assay type: cell-based, mouse
Method: Cell lysates were prepared in immunoprecipitation buffer (20 mM Tris HCl (pH 7.5), 150 mM NaCl, 1 mM EDTA, 10% glycerol, 1% Nonidet P-40; 1 mM dithiothreitol, 10 mM NaF, 1 mM sodium orthovanadate, 10 μg/ml leupeptin, 10 μg/ml aprotinin, 10 μg/ml pepstatin A, and 1 mM phenylmethylsulfonyl fluoride) (Petkov et al., 2003). Cells were scraped from the plates, lysed on ice for 30 min. Cellular debris was eliminated by centrifugation for 10 min at 10,000 rpm. The protein concentration was determined by the BCA protein Assay®. Proteins (20-100 μg) were separated on SDS-PAGE and transferred to nitrocellulose membranes obtained from GE Healthcare, (Piscataway, N.J.). Membranes were blocked in PBS containing 0.1% Tween-20 and 1% BSA for 1 h at room temperature. Membranes were incubated with primary antibodies overnight at 4° C., and with secondary antibodies for 1 h at room temperature. All antibodies were diluted in PBS containing 0.1% Tween 20 and 1% BSA, and ECL reagent obtained from Perkin Elmer (Waltham, Mass.) was used for immunodetection. GAPDH was used as a loading control.
A Bio-Rad gel scanner and densitometer (Gel DocXR with Quantity 1 program) were used to assess the intensity of the bands obtained by Western blots. […] The arbitrary units obtained were normalized to GAPDH and the ratios for NEP+/+ to NEP−/− PASMCs were calculated. […]

[4] = target: T1, NEP activity in wild-type cells (Mus musculus, UniProt Q61391); details: phosphoramidon 10 μmole/liter; cited from earlier work
T1 construct: endogenous in cells; host or cells: wild-type (NEP+/+) mouse PASMCs
T1 sequence (Q61391 1-750): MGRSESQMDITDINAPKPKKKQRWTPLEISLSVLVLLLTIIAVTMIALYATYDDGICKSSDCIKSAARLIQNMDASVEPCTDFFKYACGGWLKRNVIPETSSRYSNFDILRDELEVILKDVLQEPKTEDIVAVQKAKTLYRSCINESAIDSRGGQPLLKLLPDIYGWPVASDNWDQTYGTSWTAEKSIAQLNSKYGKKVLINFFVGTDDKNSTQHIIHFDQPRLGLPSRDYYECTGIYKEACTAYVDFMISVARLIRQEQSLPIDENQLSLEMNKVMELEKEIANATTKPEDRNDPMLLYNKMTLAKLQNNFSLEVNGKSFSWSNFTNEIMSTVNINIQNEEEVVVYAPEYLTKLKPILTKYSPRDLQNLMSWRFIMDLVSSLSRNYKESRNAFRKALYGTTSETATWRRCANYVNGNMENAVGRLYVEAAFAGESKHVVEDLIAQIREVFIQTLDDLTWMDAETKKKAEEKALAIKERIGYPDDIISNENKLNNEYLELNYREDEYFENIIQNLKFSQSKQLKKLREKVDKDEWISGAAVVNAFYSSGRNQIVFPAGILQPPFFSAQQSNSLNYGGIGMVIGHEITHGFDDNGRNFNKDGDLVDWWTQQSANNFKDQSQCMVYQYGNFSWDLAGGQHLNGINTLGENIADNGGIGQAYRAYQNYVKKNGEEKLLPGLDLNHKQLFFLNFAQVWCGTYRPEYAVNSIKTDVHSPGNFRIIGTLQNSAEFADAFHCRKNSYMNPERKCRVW

VIP KO mice = details: IP injections every other day; cited from earlier work
human IPAH patients = details: cited from earlier work
NEP = details: exogenous VIP; cited from earlier work
[5] = system: human PA SMCs from IPAH patients; details: cells from IPAH patients; cited from earlier work
NEP KO PA SMCs = details: added to the cell culture media or lentiviral transduction; cited from earlier work
[6] = human IPAH patients, inhalation

For CC(C)C[C@H](NP(=O)(O)O[C@@H]1O[C@@H](C)[C@H](O)[C@@H](O)[C@H]1O)C(=O)N[C@@H](Cc1c[nH]c2ccccc12)C(=O)O [phosphoramidon], the “proliferation in response to serum and PDGF” value (NEP+/+ PASMCs [1]) was “increased”, the “migration in response to serum and PDGF” value (NEP+/+ PASMCs [2]) was “increased” and the “expression of SM-contractile proteins in NEP+/+ cells” value ([3]; phosphoramidon 10 μMole/L or NEP siRNA 10 nMole/L) was “decrease”. The “inhibition of NEP activity in wild-type cells” value [4] was “completely inhibits”.

In the case of “VIP: 28 amino acid peptide with a molecular weight of 3.33 kD”, the PA medial thickening (VIP KO mice) is given as “reduced”, the RV hypertrophy (VIP KO mice) is given as “reduced” and the PaO2 (human IPAH patients; [6]) is given as “significant improvement”. For the same molecule, the exercise capacity (human IPAH patients; [6]) was “significant improvement”, the “untoward effects reported by subjects” value (human IPAH patients; human, in vivo) was “no untoward effects” and the “effect on NEP enzymatic activity” value (NEP) was “did not affect”. For the same molecule, the “in vitro proliferation of human PA SMCs” value [5] was “inhibited”.

B1: rNEP: recombinant human neprilysin protein (protein, UniProt P08473 2-750, looked up)
Neprilysin: GKSESQMDITDINTPKPKKKQRWTPLEISLSVLVLLLTIIAVTMIALYATYDDGICKSSDCIKSAARLIQNMDATTEPCTDFFKYACGGWLKRNVIPETSSRYGNFDILRDELEVVLKDVLQEPKTEDIVAVQKAKALYRSCINESAIDSRGGEPLLKLLPDIYGWPVATENWEQKYGASWTAEKAIAQLNSKYGKKVLINLFVGTDDKNSVNHVIHIDQPRLGLPSRDYYECTGIYKEACTAYVDFMISVARLIRQEERLPIDENQLALEMNKVMELEKEIANATAKPEDRNDPMLLYNKMTLAQIQNNFSLEINGKPFSWLNFTNEIMSTVNISITNEEDVVVYAPEYLTKLKPILTKYSARDLQNLMSWRFIMDLVSSLSRTYKESRNAFRKALYGTTSETATWRRCANYVNGNMENAVGRLYVEAAFAGESKHVVEDLIAQIREVFIQTLDDLTWMDAETKKRAEEKALAIKERIGYPDDIVSNDNKLNNEYLELNYKEDEYFENIIQNLKFSQSKQLKKLREKVDKDEWISGAAVVNAFYSSGRNQIVFPAGILQPPFFSAQQSNSLNYGGIGMVIGHEITHGFDDNGRNFNKDGDLVDWWTQQSASNFKEQSQCMVYQYGNFSWDLAGGQHLNGINTLGENIADNGGLGQAYRAYQNYIKKNGEEKLLPGLDLNHKQLFFLNFAQVWCGTYRPEYAVNSIKTDVHSPGNFRIIGTLQNSAEFSEAFHCRKNSYMNPEKKCRVW
For B1, the “proliferation of the NEP KO PA SMCs” value (NEP KO PA SMCs) is listed as “dose-dependent inhibition” and the “levels of SM-markers (α-SM-actin, SM-22, calponin) in null PASMCs” value ([3]; NEP−/− PASMC, lentiviral human NEP construct or rNEP 10 μg/ml) is listed as “restored”.
